Experimental data published in patent US20090030015A1, “NOVEL MULTI-CYCLIC COMPOUNDS” (REVOTAR BIOPHARMACEUTICALS AG, priority 2005, published 2009).

Assays:
[1] = target: T1, human E-Selectin-IgG-chimera (Homo sapiens, UniProt P16581); test: Sialyl Lewis X Tyrosine Sulfate Assay (sLex TSA), E-selectin; format: binding; conditions: sLexTSA; for E-Selectin [% inhib.]: in vitro inhibition at 100 μM
T1 construct: fused on or other part: human IgG Fc part, captured on the plate by goat anti human Fc antibody; a tag, no second protein
T1 sequence (P16581 22-175 limits assumed): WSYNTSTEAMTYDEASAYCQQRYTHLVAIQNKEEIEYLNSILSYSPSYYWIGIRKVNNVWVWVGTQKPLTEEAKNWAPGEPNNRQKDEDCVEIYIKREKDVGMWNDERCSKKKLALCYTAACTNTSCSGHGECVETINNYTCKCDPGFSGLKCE
Procedure: (§1) Sialyl Lewis^X Tyrosine Sulfate Assay (sLe^x TSA):
(§2) Compounds of the present invention are assayed on a molecular level for their ability to inhibit the binding of P-, L-, or E-selectin chimeric molecules to sLe^x and tyrosinesulfate residues linked to a polymeric matrix as a PSGL-1 substitute. Selected IC50-values are determined.
(§3) Microtiter plates are coated overnight in carbonate buffer pH9.6 with goat anti human Fc mAB (10 μg/ml). After washing in assay buffer (25 mM 4-(2-hydroxyethyl)-1-piperazineethanesulfonic acid (HEPES), 150 mM NaCl, 1 mM CaCl2 pH7.4) and blocking (3% bovine serum albumin (BSA) in assay buffer) plates are incubated for 2 h at 37° C. with human P-Selectin-IgG-chimera (0.61 nM respectively 150 ng/mL) or human L-Selectin-IgG-chimera (0.61 nM respectively 89 ng/mL) or human E-Selectin-IgG-chimera (0.61 nM respectively 131 ng/mL). 5 μl of sLe^x-tyrosine sulfate polyacrylamide (1 mg/ml) carrying 15% sLe^x, 10% Tyrosine-sulfate and 5% biotin is complexed with 20 μl Streptavidin-Peroxidase solution (1 mg/ml) and 25 μl assay buffer without CaCl2. For use in the assay, the ligand complex is diluted 1:10000 in assay buffer and further diluted 1:1 with varying amounts of compounds in assay buffer incl. 2% DMSO. This mixture is added to the wells precoated with E- or P-selectin. After incubation for 2 h at 37° C., wells are washed for six times with in assay buffer incl. 0.005% Polyoxyethylenesorbitan monolaurate (TWEEN 20), developed for 10-15 min with 20 μl 3,3′,5,5′-tetramethylbenzidine (TMB)/H2O2 substrate solution and stopped with 20 μl 1M H2SO4. Bound sLe^x-Tyrosine sulfate ligand complex is determined by measuring optical density at 450 nm vs. 620 nm in a Fusion alpha-FP reader (sold from Packard Bioscience, Dreieich, Germany).

[2] = target: T2, human L-Selectin-IgG-chimera (Homo sapiens, UniProt P14151); test: Sialyl Lewis X Tyrosine Sulfate Assay (sLex TSA), L-selectin; format: binding; conditions: sLexTSA; for L-Selectin [% inhib.]: in vitro inhibition at 100 μM
T2 construct: fused on or other part: human IgG Fc part, captured on the plate by goat anti human Fc antibody; a tag, no second protein
T2 sequence (P14151 39-318 limits assumed): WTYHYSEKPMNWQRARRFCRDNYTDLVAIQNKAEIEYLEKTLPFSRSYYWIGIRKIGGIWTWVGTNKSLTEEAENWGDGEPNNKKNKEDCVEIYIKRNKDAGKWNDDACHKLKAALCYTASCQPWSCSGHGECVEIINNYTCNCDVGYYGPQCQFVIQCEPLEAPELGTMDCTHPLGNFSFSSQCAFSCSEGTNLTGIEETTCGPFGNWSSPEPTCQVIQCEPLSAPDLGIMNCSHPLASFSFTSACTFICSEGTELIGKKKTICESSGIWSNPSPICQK
Procedure: as §1, §2, §3

[3] = target: T3, human P-Selectin-IgG-chimera (Homo sapiens, UniProt P16109); test: Sialyl Lewis X Tyrosine Sulfate Assay (sLex TSA), P-selectin; format: binding; conditions: sLexTSA; for P-Selectin [% inhib.]: in vitro inhibition at 100 μM
T3 sequence (P16109 42-771 limits assumed): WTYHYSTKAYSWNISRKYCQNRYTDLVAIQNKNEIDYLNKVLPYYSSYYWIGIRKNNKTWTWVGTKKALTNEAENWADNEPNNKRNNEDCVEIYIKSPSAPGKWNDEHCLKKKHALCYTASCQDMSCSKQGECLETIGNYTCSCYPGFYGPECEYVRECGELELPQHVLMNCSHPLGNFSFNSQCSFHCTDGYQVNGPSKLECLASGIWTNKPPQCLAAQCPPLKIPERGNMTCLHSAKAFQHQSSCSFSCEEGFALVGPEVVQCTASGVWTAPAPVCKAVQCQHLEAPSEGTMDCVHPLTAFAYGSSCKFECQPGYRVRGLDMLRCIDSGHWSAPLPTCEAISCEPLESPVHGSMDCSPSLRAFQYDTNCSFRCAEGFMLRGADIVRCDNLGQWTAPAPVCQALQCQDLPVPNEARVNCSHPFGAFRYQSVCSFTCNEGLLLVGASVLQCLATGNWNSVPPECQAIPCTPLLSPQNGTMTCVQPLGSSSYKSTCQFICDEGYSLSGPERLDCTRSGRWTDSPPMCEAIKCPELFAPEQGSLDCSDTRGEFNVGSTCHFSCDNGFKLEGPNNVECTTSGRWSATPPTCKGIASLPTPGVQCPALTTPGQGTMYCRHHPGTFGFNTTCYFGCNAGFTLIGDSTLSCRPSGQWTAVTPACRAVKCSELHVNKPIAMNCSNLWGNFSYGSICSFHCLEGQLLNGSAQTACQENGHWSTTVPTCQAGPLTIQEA
Procedure: as §1, §2, §3

[4] = system: human E-selectin-IgG chimera; test: Flow chamber assay, cell adhesion and rolling under flow conditions, E-selectin; format: cell-based; conditions: normalized ratio of %-inhibition of compound divided by %-inhibition of bimosiamose; 125 μM compound; HL-60 cells; flow shear 1 dyne/cm^2
Procedure: (§4) Flow Chamber Assay/Cell Adhesion and Rolling Under Flow Conditions
(§5) To assess the capability of compounds to inhibit cell binding under dynamic conditions resembling the flow in a blood vessel, flow chamber assays addressing/testing binding of HL-60 cells/various cell lines to P-selectin, L-selectin and E-selectin chimeric molecules are performed.
(§6) Cell attachment under flow conditions is determined using a parallel flow chamber system. A 35 mm polystyrene culture dish is coated for 1 hour at room temperature with coating buffer (50 mM tris-(hydroxymethyl)aminomethane buffer (Tris), 150 mM NaCl, 2 mM CaCl2; pH 7.4) containing human E- or P-selectin-IgG chimera at concentrations of 2.5 μg/ml or 10 μg/ml, respectively. After removal of the coating solution non specific binding sites are blocked for an additional hour with 1% BSA in coating buffer at room temperature. After washing with assay buffer (“Roswell Park Memorial Institute 1640” (RPMI 1640)+10 mM HEPES) the dish is fitted into a parallel plate laminar flow chamber (sold from Glycotech, Rockville, Md.) and mounted on an inverted phase-contrast microscope (sold from Olympus, Hamburg, Germany) equipped with a CCD camera (JVC) that is connected to a PC. Employing a peristaltic pump (sold from Ismatec, Wertheim-Mondfeld, Germany) the re-circulating system is equilibrated with assay buffer containing 125 μM compound or vehicle control (DMSO). Cells (1 million/ml) are added to the chamber and allowed to distribute for 2 minutes at a high flow rate. The flow rate is then decreased resulting in a calculated flow shear of 1 dyne/cm^2. Video sequences of 10 low power fields are digitally recorded after 5 minutes continuous flow. The percentage of inhibition is calculated from the mean number of cells per field that attached to the coated dish surface in the presence versus absence of compound […].

[5] = system: human P-selectin-IgG chimera; test: Flow chamber assay, cell adhesion and rolling under flow conditions, P-selectin; format: cell-based; conditions: normalized ratio of %-inhibition of compound divided by %-inhibition of bimosiamose; 125 μM compound; HL-60 cells; flow shear 1 dyne/cm^2
Procedure: as §4, §5, §6

`O=C(CCCNC(=O)c1cc(O)cc(O)c1)Nc1cccc(C(=O)O)c1` [Compound 21, 3-[4-(3,5-Dihydroxy-benzoylamino)-butyrylamino]-benzoic acid] was tested, and the “E-Selectin [% inhib.]” value [1] was 40.7 % inhib, the “L-Selectin [% inhib.]” value [2] was 18.7 % inhib and the “P-Selectin [% inhib.]” value [3] was 3.0 % inhib.
In the case of `COC(=O)c1cccc(NC(=O)CCCNC(=O)c2cc(O)cc(O)c2)c1` [Compound 22, 3-[4-(3,5-Dihydroxy-benzoylamino)-butyrylamino]-benzoic acid methyl ester], the “E-Selectin [% inhib.]” value [1] is reported as 42.7 % inhib, the “L-Selectin [% inhib.]” value [2] is reported as 21.3 % inhib and the “P-Selectin [% inhib.]” value [3] is reported as 22.7 % inhib.
`O=C(O)CN1CCN(C(=O)CCCNC(=O)c2cc(O)cc(O)c2)CC1` [Compound 23, {4-[4-(3,5-Dihydroxy-benzoylamino)-butyryl]-piperazin-1-yl}-acetic acid] was tested, and the “E-Selectin [% inhib.]” value [1] was 10.5 % inhib, the “L-Selectin [% inhib.]” value [2] was 11.6 % inhib and the “P-Selectin [% inhib.]” value [3] was 18.9 % inhib.
With `O=C(CCCNC(=O)c1cc(O)cc(O)c1)Nc1ccc(C(=O)O)cc1` [Compound 24, 4-[4-(3,5-Dihydroxy-benzoylamino)-butyrylamino]-benzoic acid] the “E-Selectin [% inhib.]” value [1] was 35.9 % inhib, the “L-Selectin [% inhib.]” value [2] was 5.9 % inhib and the “P-Selectin [% inhib.]” value [3] was 0.5 % inhib.
For `COc1ccc(CC(=O)Nc2ccc(-c3cc(C(=O)O)c(C)o3)cc2)c(OC)c1` [Compound 28, 5-{4-[2-(2,4-Dimethoxy-phenyl)-acetylamino]-phenyl}-2-methyl-furan-3-carboxylic acid], the IC50 [1] was 201 µM, the “E-Selectin [Ratio]” value [4] was 0.99 Ratio and the IC50 [2] was 319 µM. The “P-Selectin [Ratio]” value [5] was “n.s” and the IC50 [3] was 238 µM.
With `COc1cc(CC(=O)Nc2ccc(-c3cc(C(=O)O)c(C)o3)cc2)cc(OC)c1` [Compound 30, 5-{4-[2-(3,5-Dimethoxy-phenyl)-acetylamino]-phenyl}-2-methyl-furan-3-carboxylic acid] the IC50 [1] was > 500 µM, the “E-Selectin [Ratio]” value [4] was 1.03 Ratio and the IC50 [2] was 376 µM. The “P-Selectin [Ratio]” value [5] was “n.s” and the IC50 [3] was 133 µM.
In the case of `O=C(O)CCc1cccc(NC(=O)CCCNC(=O)c2cc(O)cc(O)c2)c1` [Compound 32], the “E-Selectin [% inhib.]” value [1] is reported as 35.0 % inhib, the “L-Selectin [% inhib.]” value [2] is reported as 13.1 % inhib and the “P-Selectin [% inhib.]” value [3] is reported as 1.4 % inhib.
With `COC(=O)CCc1cccc(NC(=O)CCCNC(=O)c2cc(O)cc(O)c2)c1` [Compound 33] the “E-Selectin [% inhib.]” value [1] was 38.6 % inhib, the “L-Selectin [% inhib.]” value [2] was 27.3 % inhib and the “P-Selectin [% inhib.]” value [3] was 10.6 % inhib.
In the case of `O=C(O)Cc1cccc(NC(=O)CCCNC(=O)c2cc(O)cc(O)c2)c1` [Compound 34], the “E-Selectin [% inhib.]” value [1] is reported as 41.0 % inhib, the “L-Selectin [% inhib.]” value [2] is reported as 18.1 % inhib and the “P-Selectin [% inhib.]” value [3] is reported as 12.9 % inhib.
With `COC(=O)Cc1cccc(NC(=O)CCCNC(=O)c2cc(O)cc(O)c2)c1` [Compound 35] the “E-Selectin [% inhib.]” value [1] was 40.8 % inhib, the “L-Selectin [% inhib.]” value [2] was 19.4 % inhib and the “P-Selectin [% inhib.]” value [3] was 15.6 % inhib.
For `Cc1ccc(C(=O)O)cc1NC(=O)CCCNC(=O)c1cc(O)cc(O)c1` [Compound 36], the “E-Selectin [% inhib.]” value [1] was 35.8 % inhib, the “L-Selectin [% inhib.]” value [2] was 6.8 % inhib and the “P-Selectin [% inhib.]” value [3] was 1.2 % inhib.
`COC(=O)c1ccc(C)c(NC(=O)CCCNC(=O)c2cc(O)cc(O)c2)c1` [Compound 37] was tested, and the “E-Selectin [% inhib.]” value [1] was 38.9 % inhib, the “L-Selectin [% inhib.]” value [2] was 9.5 % inhib and the “P-Selectin [% inhib.]” value [3] was 5.2 % inhib.
In the case of `Cc1c(NC(=O)CCCNC(=O)c2cc(O)cc(O)c2)cccc1C(=O)O` [Compound 38], the “E-Selectin [% inhib.]” value [1] is reported as 40.9 % inhib, the “L-Selectin [% inhib.]” value [2] is reported as 19.3 % inhib and the “P-Selectin [% inhib.]” value [3] is reported as 9.4 % inhib.
For `O=C(CCCNC(=O)c1cc(O)cc(O)c1)NCc1ccc(C(=O)O)cc1` [Compound 39], the “E-Selectin [% inhib.]” value [1] was 24.8 % inhib, the “L-Selectin [% inhib.]” value [2] was 10.9 % inhib and the “P-Selectin [% inhib.]” value [3] was 2.9 % inhib.
In the case of `COC(=O)c1ccc(CNC(=O)CCCNC(=O)c2cc(O)cc(O)c2)cc1` [Compound 40], the “E-Selectin [% inhib.]” value [1] is reported as 34.4 % inhib, the “L-Selectin [% inhib.]” value [2] is reported as 31.1 % inhib and the “P-Selectin [% inhib.]” value [3] is reported as 28.2 % inhib.
`O=C(O)Cc1ccc(-c2ccccc2NC(=O)c2cncc(-c3ccc(O)cc3O)c2)s1` [Compound 73, [5-(2-{[5-(2,4-Dihydroxy-phenyl)-pyridine-3-carbonyl]-amino}-phenyl)-thiophen-2-yl]-acetic acid] was tested, and the “E-Selectin [Ratio]” value [4] was 0.99 Ratio, the IC50 [2] was 502 µM and the “P-Selectin [Ratio]” value [5] was 1.20 Ratio. It also gave an IC50 [3] of 260 µM.
With `Cc1oc(-c2ccc(NC(=O)c3cncc(-c4ccc(O)cc4O)c3)cc2)cc1C(=O)O` [Compound 76, 5-(4-{[5-(2,4-Dihydroxy-phenyl)-pyridine-3-carbonyl]-amino}-phenyl)-2-methyl-furan-3-carboxylic acid] the IC50 [1] was 480 µM, the “E-Selectin [Ratio]” value [4] was 0.61 Ratio and the IC50 [2] was 278 µM. For the same compound, the “P-Selectin [Ratio]” value [5] was 1.26 Ratio and the IC50 [3] was 234 µM.
`COc1cc(OC)cc(-c2cccc(C(=O)Nc3ccccc3-c3ccc(CC(=O)O)s3)c2)c1` [Compound 81, (5-{2-[(3′,5′-Dimethoxy-biphenyl-3-carbonyl)-amino]-phenyl}-thiophen-2-yl)-acetic acid] was tested, and the “E-Selectin [Ratio]” value [4] was 1.27 Ratio, the IC50 [2] was 131 µM and the “P-Selectin [Ratio]” value [5] was 1.55 Ratio. For the same compound, the IC50 [3] was 35.3 µM.
`COc1cc(OC)cc(-c2cccc(C(=O)Nc3ccccc3-c3ccc(C(=O)O)s3)c2)c1` [Compound 84, 5-{2-[(3′,5′-Dimethoxy-biphenyl-3-carbonyl)-amino]-phenyl}-thiophene-2-carboxylic acid] was tested, and the “E-Selectin [Ratio]” value [4] was 1.36 Ratio, the IC50 [2] was 144 µM and the “P-Selectin [Ratio]” value [5] was 1.02 Ratio. It also gave an IC50 [3] of 46.6 µM.
